Measured values from PubChem BioAssay (NCI).
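Where inhibition never reached the appropriate level, the endpoint shown equals the highest concentration tested. Otherwise, values were interpolated linearly from a five-concentration, 48-hour dose response in 96-well plates. The concentration for 50% growth inhibition is given as GI50. TGI is the concentration that stops growth completely.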

Assays:
Assay in all cases: NCI-60 cell line screen, 48 h
BT-549 breast = system: BT-549 breast
CCRF-CEM leukemia = system: CCRF-CEM leukemia
MDA-MB-435 = system: MDA-MB-435
NCI-H226 lung = system: NCI-H226 lung
NCI-H23 lung = system: NCI-H23 lung
OVCAR-3 ovarian = system: OVCAR-3 ovarian
OVCAR-8 ovarian = system: OVCAR-8 ovarian
RPMI-8226 leukemia = system: RPMI-8226 leukemia
SF-539 CNS = system: SF-539 CNS
UACC-257 melanoma = system: UACC-257 melanoma

Compound | GI50 (BT-549 breast) [µM] | TGI (BT-549 breast) [µM] | GI50 (CCRF-CEM leukemia) [µM] | TGI (CCRF-CEM leukemia) [µM] | GI50 (MDA-MB-435) [µM] | TGI (MDA-MB-435) [µM] | GI50 (NCI-H226 lung) [µM] | TGI (NCI-H226 lung) [µM] | GI50 (NCI-H23 lung) [µM] | TGI (NCI-H23 lung) [µM] | GI50 (OVCAR-3 ovarian) [µM] | TGI (OVCAR-3 ovarian) [µM] | GI50 (OVCAR-8 ovarian) [µM] | TGI (OVCAR-8 ovarian) [µM] | GI50 (RPMI-8226 leukemia) [µM] | TGI (RPMI-8226 leukemia) [µM] | GI50 (SF-539 CNS) [µM] | TGI (SF-539 CNS) [µM] | TGI (UACC-257 melanoma) [µM] | GI50 (UACC-257 melanoma) [µM]
C[C@@H]1CN2[C@H]3[C@@H]1CC[C@]31CCC(=O)O[C@]1(C)[C@H]1CC[C@H]3CCC=C3[C@@H]12 | > 30 | > 30 | > 30 | > 30 | > 30 | > 30 | > 30 | > 30 | > 30 | > 30 | > 30 | > 30 | > 30 | > 30 | > 30 | > 30 | > 30 | > 30 |  | 
CC(=O)N1C/C(=C\c2ccccc2)C(=O)/C(=C/c2ccccc2)C1 |  |  |  | 11.3 |  |  |  | 35.5 |  | 41.3 |  | 16.4 |  | 24.4 |  | 4.79 |  | 34.3 | 18.6 | 
CC(=O)/C(=C\c1ccc(Cl)cc1)c1ccccc1 | 0.107 | 0.946 | 0.0534 | > 100 |  |  | 2.3 | > 90.1 | 0.26 | > 100 | 0.0383 | 0.229 | 0.304 | > 100 | 0.133 | 25.9 |  |  |  | 
O=C(NCc1cn(Cc2cccc(Oc3ccccc3)c2)nn1)c1cccnc1Nc1ccc(F)cc1 | 45.6 | > 100 | > 100 | > 100 |  |  | 38.6 | > 100 | 52.1 | > 100 | 17.7 | > 100 | 7.44 | > 100 | > 100 | > 100 | 15.1 | > 100 | > 100 | 6.87
CCN1CCN(CCC(=O)Nc2cccc(-n3cc(-c4ccncc4)c(-c4ccc(Cl)c(OC)c4)n3)c2)CC1 | 1.38 | 4.43 | 0.374 | 10.3 | 0.123 | 0.35 | 1.26 | 7.31 | 1.04 | 3.56 | 0.352 | 1.43 | 1.26 | 3.82 |  |  | 0.362 | 1.47 | 2.31 | 0.864
O=C(CCc1n[nH]c(=S)o1)Nc1cc(Cl)ccc1Cl |  |  |  | > 100 |  |  |  | > 100 |  | > 100 |  | > 100 |  | > 100 |  | 46.3 |  | > 100 | > 100 | 
CCN(CC)CC(=O)NC1c2ccccc2Oc2ccccc21 |  |  |  | > 100 |  |  |  | > 100 |  | > 100 |  |  |  | > 100 |  | > 100 |  | > 100 | > 100 | 
Cc1ccc(N)c(S)c1 |  | 36.4 |  | > 100 |  | 36.1 |  | 49.1 |  | 36.3 |  | 44 |  | 30.8 |  |  |  | 31.3 | 54.7 | 
Cn1cc(C2NC(=O)c3ccccc3N2)c2ccccc21 (configuration not stated) |  | > 100 |  | 0.877 |  | > 100 |  | 3.59 |  | > 100 |  | 2.03 |  | > 100 |  |  |  | 6.87 | > 100 | 
O=C(/C=C/c1ccccc1)NC1C=Nc2ccc([N+](=O)[O-])cc2NC1=O (configuration not stated) |  |  |  | > 100 |  |  |  | > 100 |  | > 100 |  | > 100 |  | > 100 |  |  |  | > 100 | > 100 | 
Cn1ncnc1[C@@H]1c2n[nH]c(=O)c3cc(F)cc(c23)N[C@H]1c1ccc(F)cc1 | > 100 | > 100 | 91.6 | > 100 | > 100 | > 100 | > 100 | > 100 | > 100 | > 100 | > 100 | > 100 | > 100 | > 100 | > 100 | > 100 | > 100 | > 100 |  | 
COC(=O)C(=O)C(C#N)c1nc2ccccc2s1 (configuration not stated) |  |  |  | > 100 |  |  |  | > 100 |  | > 100 |  | > 100 |  | > 100 |  | > 100 |  | > 100 | > 100 | 
C=C(CO)C(=O)OC1CC(=C)C2CC(O)C(C)C2C2OC(=O)C(=C)C12 (configuration not stated) |  | 32.3 |  | 77.7 |  | 45.2 |  |  |  | > 100 |  | 34.2 |  | 69.9 |  | 58.1 |  | 37.8 | 32.7 | 
Cc1ccc(S(=O)c2ccccc2[N+](=O)[O-])cc1 (configuration not stated) |  |  |  | > 100 |  |  |  | 85.9 |  | > 100 |  | > 100 |  | > 100 |  | > 100 |  | > 100 | > 100 | 
CN(C)CC1CC/C(=C\c2ccc(Cl)c(Cl)c2)C1=O (configuration not stated) |  |  |  | 22.7 |  |  |  | > 100 |  | 47.3 |  | > 61.5 |  | > 58.9 |  | 8.92 |  | > 55.7 | > 60.9 | 
CC(C)=CCC/C(C)=C/CC/C(C)=C/CSC[C@H](NC(=O)CCCCCN1CCN(C)CC1)C(=O)NC1CCCCCC1 |  |  | 2.35 | 7.07 | 1.85 | 3.43 | 11.6 | 38.4 | 3.01 | 8.78 | 2.06 | 4.1 | 3.33 | 12.2 | 1.98 | 4.67 | 1.89 | 3.38 | 3.63 | 1.85
CC(C)(CN1CCCCC1)C(=O)/C=C/c1ccccc1 |  |  |  | 35.4 |  |  |  | 69.8 |  | 33.7 |  | 21.6 |  | 49.5 |  | 38.3 |  | 22.9 | 46.8 | 
O=C([CH-]C(=O)c1ccccc1)c1ccccc1.O=C([CH-]C(=O)c1ccccc1)c1ccccc1.O=C([CH-]C(=O)c1ccccc1)c1ccccc1.[Ga+3] |  |  |  |  |  |  | 26.1 | > 100 | 47.4 | > 100 | > 100 | > 100 | > 100 | > 100 | 27 | > 100 | 33.9 | > 100 | > 100 | 93.3
